Where two headings read alike, the source gives them in different places.
Experiments:
Format in all cases: in vivo
[1] = test system: cocklebur (Xanthium strumarium); assay: Test B pre-/postemergence plant response
In short: (§1)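 Steps: sow seed in loam–sand soil and spray preemergence, or grow plants in peat-based medium to 1–4 leaves (2–18 cm) and spray postemergence; formulation is non-phytotoxic solvent plus surfactant; hold in greenhouse 13–15 days; score visually vs controls, 0 = no effect, 100 = complete control.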

soybean (Glycine max) = assay: Test B pre-/postemergence plant response
In short: as §1

[2] = test system: morningglory (Ipomoea coccinea); assay: Test B pre-/postemergence plant response
In short: as §1

[3] = test system: wheat (Triticum aestivum); assay: Test B pre-/postemergence plant response
In short: as §1

[4] = test system: velvetleaf (Abutilon theophrasti); assay: Test A pre-/postemergence plant response; conditions: Abutilon theophrasti, 240 h; for pest or weed control at 125 g/ha: 125 g ai/ha; for pest or weed control at 500 g/ha: 500 g ai/ha
In short: (§2)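 Plants grown from seed in a loam soil and sand mix received test compounds both as a preemergence soil spray and, at the same time, as a postemergence spray at the one- to two-leaf stage. Injury was judged visually against untreated controls roughly ten days later, 0 meaning no effect and 100 complete control.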

[5] = test system: barnyardgrass (Echinochloa crus-galli); assay: Test A pre-/postemergence plant response; conditions: Echinochloa crus-galli, 240 h; for pest or weed control at 125 g/ha: 125 g ai/ha; for pest or weed control at 500 g/ha: 500 g ai/ha
In short: as §2

[6] = test system: large crabgrass (Digitaria sanguinalis); assay: Test A pre-/postemergence plant response; conditions: Digitaria sanguinalis, 240 h; for pest or weed control at 125 g/ha: 125 g ai/ha; for pest or weed control at 500 g/ha: 500 g ai/ha
In short: as §2

[7] = test system: pigweed (Amaranthus retroflexus); assay: Test A pre-/postemergence plant response; conditions: Amaranthus retroflexus, 240 h; for pest or weed control at 125 g/ha: 125 g ai/ha; for pest or weed control at 500 g/ha: 500 g ai/ha
In short: as §2

corn (Zea mays) = assay: Test A pre-/postemergence plant response; conditions: Zea mays, 240 h; for Corn plant response rating (crop injury, 0 = no effect, 100 = complete kill) at 500 g/ha: 500 g ai/ha
In short: as §2

[8] = test system: wheat (Triticum aestivum); assay: Test A pre-/postemergence plant response; conditions: Triticum aestivum, 240 h; for plant injury at 125 g/ha: 125 g ai/ha; for plant injury at 500 g/ha: 500 g ai/ha
In short: as §2

[9] = test system: morningglory (Ipomoea spp.); assay: Test A pre-/postemergence plant response; conditions: Ipomoea, 240 h; for pest or weed control at 125 g/ha: 125 g ai/ha; for pest or weed control at 500 g/ha: 500 g ai/ha
In short: as §2

[10] = test system: giant foxtail (Setaria faberii); assay: Test A pre-/postemergence plant response; conditions: Setaria faberi, 240 h; for pest or weed control at 125 g/ha: 125 g ai/ha; for pest or weed control at 500 g/ha: 500 g ai/ha
In short: as §2

[11] = Preemergence, 125 g ai/ha, 0 to 100 scale

Structure (SMILES): Cc1c(F)cccc1-n1c(-c2ccccc2)ncc(C(=O)C2=C(O)CCCC2=O)c1=O [Compound 47, 3-(3-fluoro-2-methylphenyl)-5-[(2-hydroxy-6-oxo-1-cyclohexen-1-yl)carbonyl]-2-phenyl-4(3H)-pyrimidinone]
- Cocklebur plant response rating ([1]; Postemergence, 250 g ai/ha, scale 0 to 100): 100
- pest or weed control at 31 g/ha ([1]; Xanthium strumarium, post-emergence, Postemergence, 31 g ai/ha, scale 0 to 100 (0 no effect, 100 complete control), read-out: Plant response rating, Cocklebur): 95%
- pest or weed control at 125 g/ha ([1]; Xanthium strumarium, post-emergence, Postemergence, 125 g ai/ha, visual rating after 13 to 15 days, scale 0 (no effect) to 100 (complete control)): 95%
- pest or weed control at 62 g/ha ([1]; Xanthium strumarium, pre-emergence, Preemergence, 62 g ai/ha, scale 0 to 100, 0 no effect, 100 complete control, read-out: Plant response rating, Cocklebur): 0%
- plant injury at 62 g/ha (soybean (Glycine max); Glycine max, post-emergence, Postemergence, 62 g ai/ha, scale 0 (no effect) to 100 (complete control), 13 to 15 days, read-out: Plant response rating, Soybean): 95%
- plant injury at 125 g/ha (soybean (Glycine max); Glycine max, post-emergence, Postemergence, 125 g ai/ha, visual rating after 13 to 15 days, scale 0 (no effect) to 100 (complete control)): 98%
- plant injury at 250 g/ha (soybean (Glycine max); Glycine max, pre-emergence, 250 g ai/ha, Preemergence, 0 to 100 scale, read-out: Plant response rating, Soybean): 0%
- plant injury at 31 g/ha (soybean (Glycine max); Glycine max, pre-emergence, Preemergence, 31 g ai/ha, scale 0 to 100 (0 no effect, 100 complete control), read-out: Plant response rating, Soybean): 0%
- Soybean plant response rating (soybean (Glycine max); [11]): 0
- pest or weed control at 62 g/ha ([2]; Ipomoea, post-emergence, Postemergence, 62 g ai/ha, scale 0 (no effect) to 100 (complete control), 13 to 15 days, read-out: Plant response rating, Morningglory): 80%
- pest or weed control at 125 g/ha ([2]; Ipomoea, post-emergence, Postemergence, 125 g ai/ha, visual rating after 13 to 15 days, scale 0 (no effect) to 100 (complete control)): 90%
- pest or weed control at 250 g/ha ([2]; Ipomoea, pre-emergence, 250 g ai/ha, Preemergence, 0 to 100 scale, read-out: Plant response rating, Morningglory): 55%
- pest or weed control at 31 g/ha ([2]; Ipomoea, pre-emergence, Preemergence, 31 g ai/ha, scale 0 to 100 (0 no effect, 100 complete control), read-out: Plant response rating, Morningglory): 0%
- Morningglory plant response rating [2, 11]: 0
- Wheat plant response rating [3, 11]: 0
- plant injury at 62 g/ha ([3]; Triticum aestivum, post-emergence, Postemergence, 62 g ai/ha, scale 0 (no effect) to 100 (complete control), 13 to 15 days, read-out: Plant response rating, Wheat): 0%
- plant injury at 125 g/ha ([3]; Triticum aestivum, post-emergence, Postemergence, 125 g ai/ha, visual rating after 13 to 15 days, scale 0 (no effect) to 100 (complete control)): 5%
- plant injury at 250 g/ha ([3]; Triticum aestivum, pre-emergence, 250 g ai/ha, Preemergence, 0 to 100 scale, read-out: Plant response rating, Wheat): 0%
- plant injury at 31 g/ha ([3]; Triticum aestivum, pre-emergence, Preemergence, 31 g ai/ha, scale 0 to 100 (0 no effect, 100 complete control), read-out: Plant response rating, Wheat): 0%
- pest or weed control at 125 g/ha ([4]; post-emergence, Postemergence, visual injury, 0 to 100 scale (0 no effect, 100 complete control), approx. ten days, read-out: Velvetleaf plant response rating): 100%
- pest or weed control at 500 g/ha ([4]; post-emergence, Postemergence, 0 to 100 scale, 0 = no effect, 100 = complete control, approx. ten days, read-out: Plant response rating, Velvetleaf): 100%
- pest or weed control at 125 g/ha ([4]; pre-emergence, Preemergence, 0 to 100 scale, 0 = no effect, 100 = complete control, read-out: Plant response rating, Velvetleaf): 70%
- pest or weed control at 500 g/ha ([4]; pre-emergence, Preemergence, visual injury, 0 to 100 scale (0 no effect, 100 complete control), approx. ten days, read-out: Plant response rating, Velvetleaf): 100%
- pest or weed control at 125 g/ha ([5]; post-emergence, Postemergence, visual injury, 0 to 100 scale (0 no effect, 100 complete control), approx. ten days, read-out: Barnyardgrass plant response rating): 90%
- pest or weed control at 500 g/ha ([5]; post-emergence, Postemergence, 0 to 100 scale, 0 = no effect, 100 = complete control, approx. ten days, read-out: Plant response rating, Barnyardgrass): 100%
- pest or weed control at 125 g/ha ([5]; pre-emergence, Preemergence, 0 to 100 scale, 0 = no effect, 100 = complete control, read-out: Plant response rating, Barnyardgrass): 10%
- pest or weed control at 500 g/ha ([5]; pre-emergence, Preemergence, visual injury, 0 to 100 scale (0 no effect, 100 complete control), approx. ten days, read-out: Plant response rating, Barnyardgrass): 90%
- pest or weed control at 125 g/ha ([6]; post-emergence, Postemergence, visual injury, 0 to 100 scale (0 no effect, 100 complete control), approx. ten days, read-out: Crabgrass, Large plant response rating): 90%
- pest or weed control at 500 g/ha ([6]; post-emergence, Postemergence, 0 to 100 scale, 0 = no effect, 100 = complete control, approx. ten days, read-out: Plant response rating, Crabgrass, Large): 100%
- pest or weed control at 125 g/ha ([6]; pre-emergence, Preemergence, 0 to 100 scale, 0 = no effect, 100 = complete control, read-out: Plant response rating, Crabgrass, Large): 70%
- pest or weed control at 500 g/ha ([6]; pre-emergence, Preemergence, visual injury, 0 to 100 scale (0 no effect, 100 complete control), approx. ten days, read-out: Plant response rating, Crabgrass, Large): 100%
- pest or weed control at 125 g/ha ([7]; post-emergence, Postemergence, visual injury, 0 to 100 scale (0 no effect, 100 complete control), approx. ten days, read-out: Pigweed plant response rating): 90%
- pest or weed control at 500 g/ha ([7]; post-emergence, Postemergence, 0 to 100 scale, 0 = no effect, 100 = complete control, approx. ten days, read-out: Plant response rating, Pigweed): 100%
- pest or weed control at 125 g/ha ([7]; pre-emergence, Preemergence, 0 to 100 scale, 0 = no effect, 100 = complete control, read-out: Plant response rating, Pigweed): 80%
- pest or weed control at 500 g/ha ([7]; pre-emergence, Preemergence, visual injury, 0 to 100 scale (0 no effect, 100 complete control), approx. ten days, read-out: Plant response rating, Pigweed): 100%
- plant injury at 125 g/ha (corn (Zea mays); post-emergence, Postemergence, 125 g ai/ha, visual injury, 0 to 100 scale (0 no effect, 100 complete control), approx. ten days, read-out: Corn plant response rating): 0%
- Corn plant response rating (crop injury, 0 = no effect, 100 = complete kill) at 500 g/ha (corn (Zea mays); post-emergence, Postemergence, 0 to 100 scale, 0 = no effect, 100 = complete control, approx. ten days): 70%
- Corn plant response rating (crop injury, 0 = no effect, 100 = complete kill) at 125 g/ha (corn (Zea mays); pre-emergence, Preemergence, 125 g ai/ha, 0 to 100 scale, 0 = no effect, 100 = complete control): 0%
- Corn plant response rating (crop injury, 0 = no effect, 100 = complete kill) at 500 g/ha (corn (Zea mays); pre-emergence, Preemergence, visual injury, 0 to 100 scale (0 no effect, 100 complete control), approx. ten days): 0%
- plant injury at 125 g/ha ([8]; post-emergence, Postemergence, visual injury, 0 to 100 scale (0 no effect, 100 complete control), approx. ten days, read-out: Wheat plant response rating): 0%
- plant injury at 500 g/ha ([8]; post-emergence, Postemergence, 0 to 100 scale, 0 = no effect, 100 = complete control, approx. ten days, read-out: Plant response rating, Wheat): 0%
- plant injury at 125 g/ha ([8]; pre-emergence, Preemergence, 0 to 100 scale, 0 = no effect, 100 = complete control, read-out: Plant response rating, Wheat): 0%
- plant injury at 500 g/ha ([8]; pre-emergence, Preemergence, visual injury, 0 to 100 scale (0 no effect, 100 complete control), approx. ten days, read-out: Plant response rating, Wheat): 0%
- pest or weed control at 125 g/ha ([9]; post-emergence, Postemergence, visual injury, 0 to 100 scale (0 no effect, 100 complete control), approx. ten days, read-out: Morningglory plant response rating): 80%
- pest or weed control at 500 g/ha ([9]; post-emergence, Postemergence, 0 to 100 scale, 0 = no effect, 100 = complete control, approx. ten days, read-out: Plant response rating, Morningglory): 100%
- pest or weed control at 125 g/ha ([9]; pre-emergence, Preemergence, 0 to 100 scale, 0 = no effect, 100 = complete control, read-out: Plant response rating, Morningglory): 60%
- pest or weed control at 500 g/ha ([9]; pre-emergence, Preemergence, visual injury, 0 to 100 scale (0 no effect, 100 complete control), approx. ten days, read-out: Plant response rating, Morningglory): 90%
- pest or weed control at 125 g/ha ([10]; post-emergence, Postemergence, visual injury, 0 to 100 scale (0 no effect, 100 complete control), approx. ten days, read-out: Foxtail, Giant plant response rating): 90%
- pest or weed control at 500 g/ha ([10]; post-emergence, Postemergence, 0 to 100 scale, 0 = no effect, 100 = complete control, approx. ten days, read-out: Plant response rating, Foxtail, Giant): 100%
- pest or weed control at 125 g/ha ([10]; pre-emergence, Preemergence, 0 to 100 scale, 0 = no effect, 100 = complete control, read-out: Plant response rating, Foxtail, Giant): 50%
- pest or weed control at 500 g/ha ([10]; pre-emergence, Preemergence, visual injury, 0 to 100 scale (0 no effect, 100 complete control), approx. ten days, read-out: Plant response rating, Foxtail, Giant): 90%
